Reference: ChEMBL document CHEMBL3872214, “Synthesis and evaluation of in vivo antioxidant, in vitro antibacterial, MRSA and antifungal activity of novel substituted isatin N-(2,3,4,6-tetra-O-acetyl-β-d-glucopyranosyl)thiosemicarbazones” (Eur J Med Chem, 2016)
Converted amounts (≈) assume the structure as drawn.

Experiments:
Assay type in all cases: functional
Bacillus subtilis = assay: Antibacterial activity against Bacillus subtilis ATCC 11774 after 18 to 20 hrs by two-fold microbroth dilution method
Staphylococcus aureus [1] = assay: Antibacterial activity against Staphylococcus aureus ATCC 11632 after 18 to 20 hrs by two-fold microbroth dilution method
[2] = test system: Staphylococcus epidermidis; assay: Antibacterial activity against Staphylococcus epidermidis ATCC 12228 after 18 to 20 hrs by two-fold microbroth dilution method
Klebsiella aerogenes = assay: Antibacterial activity against Enterobacter aerogenes ATCC 13048 after 18 to 20 hrs by two-fold microbroth dilution method
Escherichia coli = assay: Antibacterial activity against Escherichia coli ATCC 25922 after 18 to 20 hrs by two-fold microbroth dilution method
Klebsiella pneumoniae = assay: Antibacterial activity against Klebsiella pneumoniae ATCC 4352 after 18 to 20 hrs by two-fold microbroth dilution method
Pseudomonas aeruginosa = assay: Antibacterial activity against Pseudomonas aeruginosa […] after 18 to 20 hrs by two-fold microbroth dilution method
Staphylococcus aureus [3] = assay: Antibacterial activity against methicillin-resistant Staphylococcus aureus 198-1 after 18 to 20 hrs by two-fold microbroth dilution method
Staphylococcus aureus [4] = assay: Antibacterial activity against methicillin-resistant Staphylococcus aureus 198-2 after 18 to 20 hrs by two-fold microbroth dilution method
Staphylococcus aureus [5] = assay: Antibacterial activity against methicillin-resistant Staphylococcus aureus 198-3 after 18 to 20 hrs by two-fold microbroth dilution method
Aspergillus niger = assay: Antifungal activity against Aspergillus niger 439 after 72 hrs by agar dilution method; settings: Aspergillus niger, 439, 72 h
Candida albicans = assay: Antifungal activity against Candida albicans ATCC 7754 after 72 hrs by agar dilution method; settings: ATCC 7754, 72 h
[6] = Antifungal activity against Fusarium oxysporum M42 after 72 hrs by agar dilution method
[7] = Antifungal activity against Saccharomyces cerevisiae SH20 after 72 hrs by agar dilution method
Rattus norvegicus [8] = assay: Antioxidant activity in CCL4-intoxicated Wistar albino rat assessed as liver cytosolic superoxide dismutase activity per mg protein at 100 mg/kg, ip administered for 7 consecutive days after DL-alpha-tocopherol acetate treatment followed by CCL4 dosing measured after 24 hrs by xanthine based assay (reference value: 5.27 +/- 0.22 U)
Rattus norvegicus [9] = assay: Antioxidant activity in CCL4-intoxicated Wistar albino rat assessed as liver cytosolic glutathione peroxidase activity per mg protein at 100 mg/kg, ip administered for 7 consecutive days after DL-alpha-tocopherol acetate treatment followed by CCL4 dosing measured after 24 hrs by H2O2 based spectrophotometric analysis (reference value: 0.28 +/- 0.01 U)
Rattus norvegicus [10] = assay: Antioxidant activity in CCL4-intoxicated Wistar albino rat assessed as liver cytosolic catalase activity per mg protein at 100 mg/kg, ip administered for 7 consecutive days after DL-alpha-tocopherol acetate treatment followed by CCL4 dosing measured after 24 hrs by H2O2 based assay (reference value: 220.15 +/- 11.43 U)

Row | SMILES | MIC (Bacillus subtilis) | MIC (Staphylococcus aureus [1]) | MIC [2] | MIC (Klebsiella aerogenes) | MIC (Escherichia coli) | MIC (Klebsiella pneumoniae) | MIC (Pseudomonas aeruginosa) | MIC (Staphylococcus aureus [3]) | MIC (Staphylococcus aureus [4]) | MIC (Staphylococcus aureus [5]) | MIC (Aspergillus niger) | MIC (Candida albicans) | MIC [6] | MIC [7] | Activity (Rattus norvegicus [8]) | Activity (Rattus norvegicus [9]) | Activity (Rattus norvegicus [10])
1 | CCN1C(=O)/C(=N/NC(=S)N[C@@H]2O[C@H](COC(C)=O)[C@@H](OC(C)=O)[C@H](OC(C)=O)[C@H]2OC(C)=O)c2ccccc21 | 100 µM (≈ 57.9 µg/mL) | 100 µM (≈ 57.9 µg/mL) | 100 µM (≈ 57.9 µg/mL) | 12.5 µM (≈ 7.23 µg/mL) | 12.5 µM (≈ 7.23 µg/mL) | 12.5 µM (≈ 7.23 µg/mL) | 12.5 µM (≈ 7.23 µg/mL) | 100 µM (≈ 57.9 µg/mL) | 100 µM (≈ 57.9 µg/mL) | 100 µM (≈ 57.9 µg/mL) | 25 µM (≈ 14.5 µg/mL) | 400 µM (≈ 231 µg/mL) | 200 µM (≈ 116 µg/mL) | 400 µM (≈ 231 µg/mL) | 9.68 U | 0.75 U | 358.47 U
2 | CC(=O)OC[C@H]1O[C@@H](NC(=S)N/N=C2/C(=O)N(C)c3ccccc32)[C@H](OC(C)=O)[C@@H](OC(C)=O)[C@@H]1OC(C)=O | 100 µM (≈ 56.5 µg/mL) | 100 µM (≈ 56.5 µg/mL) | 100 µM (≈ 56.5 µg/mL) | 12.5 µM (≈ 7.06 µg/mL) | 12.5 µM (≈ 7.06 µg/mL) | 12.5 µM (≈ 7.06 µg/mL) | 25 µM (≈ 14.1 µg/mL) | 100 µM (≈ 56.5 µg/mL) | 100 µM (≈ 56.5 µg/mL) | 100 µM (≈ 56.5 µg/mL) | 25 µM (≈ 14.1 µg/mL) | 100 µM (≈ 56.5 µg/mL) | 200 µM (≈ 113 µg/mL) | 100 µM (≈ 56.5 µg/mL) | 9.52 U | 0.67 U | 350 U
3 | CC(=O)OC[C@H]1O[C@@H](NC(=S)N/N=C2/C(=O)Nc3ccc(C(C)C)cc32)[C@H](OC(C)=O)[C@@H](OC(C)=O)[C@@H]1OC(C)=O | 25 µM (≈ 14.8 µg/mL) | 12.5 µM (≈ 7.41 µg/mL) | 12.5 µM (≈ 7.41 µg/mL) | 50 µM (≈ 29.6 µg/mL) | 50 µM (≈ 29.6 µg/mL) | 25 µM (≈ 14.8 µg/mL) | 25 µM (≈ 14.8 µg/mL) | 12.5 µM (≈ 7.41 µg/mL) | 12.5 µM (≈ 7.41 µg/mL) | 12.5 µM (≈ 7.41 µg/mL) | 100 µM (≈ 59.3 µg/mL) | 100 µM (≈ 59.3 µg/mL) | 25 µM (≈ 14.8 µg/mL) | 50 µM (≈ 29.6 µg/mL) | 5.82 U | 1.75 U | 260.61 U
4 | CC(=O)OC[C@H]1O[C@@H](NC(=S)N/N=C2/C(=O)Nc3c2cc(Cl)cc3[N+](=O)[O-])[C@H](OC(C)=O)[C@@H](OC(C)=O)[C@@H]1OC(C)=O | 3.12 µM (≈ 1.97 µg/mL) | 6.25 µM (≈ 3.94 µg/mL) | 6.25 µM (≈ 3.94 µg/mL) | 25 µM (≈ 15.7 µg/mL) | 25 µM (≈ 15.7 µg/mL) | 25 µM (≈ 15.7 µg/mL) | 25 µM (≈ 15.7 µg/mL) | 6.25 µM (≈ 3.94 µg/mL) | 6.25 µM (≈ 3.94 µg/mL) | 6.25 µM (≈ 3.94 µg/mL) | 12.5 µM (≈ 7.87 µg/mL) | 6.25 µM (≈ 3.94 µg/mL) | 25 µM (≈ 15.7 µg/mL) | 25 µM (≈ 15.7 µg/mL) | 10.57 U | 0.35 U | 389.53 U
5 | CC(=O)OC[C@H]1O[C@@H](NC(=S)N/N=C2/C(=O)Nc3c2cc(Br)cc3[N+](=O)[O-])[C@H](OC(C)=O)[C@@H](OC(C)=O)[C@@H]1OC(C)=O | 3.12 µM (≈ 2.1 µg/mL) | 6.25 µM (≈ 4.22 µg/mL) | 6.25 µM (≈ 4.22 µg/mL) | 25 µM (≈ 16.9 µg/mL) | 25 µM (≈ 16.9 µg/mL) | 25 µM (≈ 16.9 µg/mL) | 25 µM (≈ 16.9 µg/mL) | 6.25 µM (≈ 4.22 µg/mL) | 6.25 µM (≈ 4.22 µg/mL) | 6.25 µM (≈ 4.22 µg/mL) | 12.5 µM (≈ 8.43 µg/mL) | 12.5 µM (≈ 8.43 µg/mL) | 6.25 µM (≈ 4.22 µg/mL) | 12.5 µM (≈ 8.43 µg/mL) | 10.76 U | 0.37 U | 381.67 U
6 | CCCN1C(=O)/C(=N/NC(=S)N[C@@H]2O[C@H](COC(C)=O)[C@@H](OC(C)=O)[C@H](OC(C)=O)[C@H]2OC(C)=O)c2ccccc21 | 100 µM (≈ 59.3 µg/mL) | 100 µM (≈ 59.3 µg/mL) | 100 µM (≈ 59.3 µg/mL) | 12.5 µM (≈ 7.41 µg/mL) | 12.5 µM (≈ 7.41 µg/mL) | 12.5 µM (≈ 7.41 µg/mL) | 12.5 µM (≈ 7.41 µg/mL) | 100 µM (≈ 59.3 µg/mL) | 100 µM (≈ 59.3 µg/mL) | 100 µM (≈ 59.3 µg/mL) | 50 µM (≈ 29.6 µg/mL) | 400 µM (≈ 237 µg/mL) | 100 µM (≈ 59.3 µg/mL) | 400 µM (≈ 237 µg/mL) | 9.77 U | 0.84 U | 367.63 U
7 | CC(=O)OC[C@H]1O[C@@H](NC(=S)N/N=C2/C(=O)Nc3ccc(I)cc32)[C@H](OC(C)=O)[C@@H](OC(C)=O)[C@@H]1OC(C)=O | 6.25 µM (≈ 4.23 µg/mL) | 6.25 µM (≈ 4.23 µg/mL) | 6.25 µM (≈ 4.23 µg/mL) | 50 µM (≈ 33.8 µg/mL) | 50 µM (≈ 33.8 µg/mL) | 25 µM (≈ 16.9 µg/mL) | 25 µM (≈ 16.9 µg/mL) | 6.25 µM (≈ 4.23 µg/mL) | 6.25 µM (≈ 4.23 µg/mL) | 6.25 µM (≈ 4.23 µg/mL) | 6.25 µM (≈ 4.23 µg/mL) | 6.25 µM (≈ 4.23 µg/mL) | 12.5 µM (≈ 8.46 µg/mL) | 6.25 µM (≈ 4.23 µg/mL) | 10.85 U | 0.35 U | 399.75 U
8 | CC(=O)OC[C@H]1O[C@@H](NC(=S)N/N=C2/C(=O)N(CC(C)C)c3ccccc32)[C@H](OC(C)=O)[C@@H](OC(C)=O)[C@@H]1OC(C)=O | 100 µM (≈ 60.7 µg/mL) | 100 µM (≈ 60.7 µg/mL) | 100 µM (≈ 60.7 µg/mL) | 12.5 µM (≈ 7.58 µg/mL) | 12.5 µM (≈ 7.58 µg/mL) | 12.5 µM (≈ 7.58 µg/mL) | 12.5 µM (≈ 7.58 µg/mL) | 100 µM (≈ 60.7 µg/mL) | 100 µM (≈ 60.7 µg/mL) | 100 µM (≈ 60.7 µg/mL) | 100 µM (≈ 60.7 µg/mL) | 100 µM (≈ 60.7 µg/mL) | 100 µM (≈ 60.7 µg/mL) | 100 µM (≈ 60.7 µg/mL) | 9.88 U | 0.91 U | 375.45 U
9 | CC(=O)OC[C@H]1O[C@@H](NC(=S)N/N=C2/C(=O)N(Cc3ccccc3)c3ccccc32)[C@H](OC(C)=O)[C@@H](OC(C)=O)[C@@H]1OC(C)=O | 200 µM (≈ 128 µg/mL) | 200 µM (≈ 128 µg/mL) | 200 µM (≈ 128 µg/mL) | 100 µM (≈ 64.1 µg/mL) | 100 µM (≈ 64.1 µg/mL) | 100 µM (≈ 64.1 µg/mL) | 100 µM (≈ 64.1 µg/mL) | 200 µM (≈ 128 µg/mL) | 200 µM (≈ 128 µg/mL) | 200 µM (≈ 128 µg/mL) | 100 µM (≈ 64.1 µg/mL) | 400 µM (≈ 256 µg/mL) | 100 µM (≈ 64.1 µg/mL) | 400 µM (≈ 256 µg/mL) | 8.6 U | 1.69 U | 250.63 U
10 | CC(=O)OC[C@H]1O[C@@H](NC(=S)N/N=C2/C(=O)Nc3c(C)cccc32)[C@H](OC(C)=O)[C@@H](OC(C)=O)[C@@H]1OC(C)=O | 25 µM (≈ 14.1 µg/mL) | 12.5 µM (≈ 7.06 µg/mL) | 12.5 µM (≈ 7.06 µg/mL) | 25 µM (≈ 14.1 µg/mL) | 25 µM (≈ 14.1 µg/mL) | 25 µM (≈ 14.1 µg/mL) | 25 µM (≈ 14.1 µg/mL) | 12.5 µM (≈ 7.06 µg/mL) | 12.5 µM (≈ 7.06 µg/mL) | 12.5 µM (≈ 7.06 µg/mL) | 100 µM (≈ 56.5 µg/mL) | 100 µM (≈ 56.5 µg/mL) | 25 µM (≈ 14.1 µg/mL) | 25 µM (≈ 14.1 µg/mL) | 4.6 U | 1.69 U | 250.63 U
